The source of these data is paper PMC7217817 (Clinical Pharmacokinetics, 2019).

Read-outs that look alike come from different tables or passages of the source.

For data set [1], the system named is P-gp. Particulars: cited from earlier work; for Mean AUC∞ ratio of victim drug / Mean Cmax ratio of victim drug: Observed.
Data set [2] deals with CYP3A. Particulars: cited from earlier work.
In data set [3] the target is T1, P-gp (Homo sapiens, UniProt P08183). Conditions: in vitro and clinical studies; cited from earlier work.
T1 sequence (P08183 whole entry): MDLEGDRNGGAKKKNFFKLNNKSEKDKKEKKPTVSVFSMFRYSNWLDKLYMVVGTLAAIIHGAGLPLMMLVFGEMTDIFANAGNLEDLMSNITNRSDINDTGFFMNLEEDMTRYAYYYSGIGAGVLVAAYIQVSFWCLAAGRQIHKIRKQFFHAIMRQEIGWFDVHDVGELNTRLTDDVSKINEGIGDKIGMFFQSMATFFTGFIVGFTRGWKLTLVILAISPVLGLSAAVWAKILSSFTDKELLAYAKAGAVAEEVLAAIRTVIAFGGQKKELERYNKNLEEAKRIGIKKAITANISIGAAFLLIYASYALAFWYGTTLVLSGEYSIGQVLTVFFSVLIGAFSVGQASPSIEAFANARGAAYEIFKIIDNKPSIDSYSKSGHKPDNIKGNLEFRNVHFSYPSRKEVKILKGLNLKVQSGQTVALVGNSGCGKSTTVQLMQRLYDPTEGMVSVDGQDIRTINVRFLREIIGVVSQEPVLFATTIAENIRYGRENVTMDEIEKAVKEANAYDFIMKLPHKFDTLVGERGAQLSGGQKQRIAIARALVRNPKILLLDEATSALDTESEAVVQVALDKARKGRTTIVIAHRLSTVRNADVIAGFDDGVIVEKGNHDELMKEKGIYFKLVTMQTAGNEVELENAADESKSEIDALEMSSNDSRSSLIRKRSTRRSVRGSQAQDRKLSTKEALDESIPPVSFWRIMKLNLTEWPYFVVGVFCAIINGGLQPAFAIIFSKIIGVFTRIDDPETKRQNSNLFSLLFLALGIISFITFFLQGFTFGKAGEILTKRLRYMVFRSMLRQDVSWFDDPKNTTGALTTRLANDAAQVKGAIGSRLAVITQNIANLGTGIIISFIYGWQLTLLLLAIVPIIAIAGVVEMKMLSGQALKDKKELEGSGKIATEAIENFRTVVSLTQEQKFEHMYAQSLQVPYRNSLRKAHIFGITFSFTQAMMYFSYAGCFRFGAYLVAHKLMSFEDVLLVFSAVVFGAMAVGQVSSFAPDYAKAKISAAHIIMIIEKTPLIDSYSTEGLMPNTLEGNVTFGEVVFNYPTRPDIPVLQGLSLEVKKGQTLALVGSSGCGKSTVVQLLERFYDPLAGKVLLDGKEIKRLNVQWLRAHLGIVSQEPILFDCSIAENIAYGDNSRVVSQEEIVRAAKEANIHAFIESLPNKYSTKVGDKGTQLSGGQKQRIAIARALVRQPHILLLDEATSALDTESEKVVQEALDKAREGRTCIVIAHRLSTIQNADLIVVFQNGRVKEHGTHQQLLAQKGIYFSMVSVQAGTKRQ
For data set [4] the following is noted: single-dose elagolix 150 mg with ketoconazole 400 mg, Observed; cited from earlier work.
The conditions of data set [5]: Child–Pugh A patients compared with healthy volunteers; cited from earlier work.
The conditions of data set [6]: cited from earlier work.
Data set [7] can be described thus: Clinical multiple-dose pharmacokinetics of elagolix in healthy subjects. The format is in vivo, human. Conditions: for AUCτ / CL/F / Cmax: healthy subjects.
Data set [8] addresses T1, P-gp. Description: P-gp inhibition. It is filed as in vitro ADME. Conditions: following administration of 150 or 200 mg of elagolix.
Where [9] appears, read: digoxin day 1 with elagolix 200 mg BID.
The mark [10] stands for this setting: digoxin day 10 with elagolix 200 mg BID.
Setting [11] is: midazolam with elagolix 150 mg QD, Observed.
Setting [12] is: 150 mg QD (N = 6), Day 21, Observed.
Where [13] appears, read: 200 mg BID (N = 7), Day 21, Observed.

As for `C[C@H]1O[C@@H](O[C@H]2[C@@H](O)C[C@H](O[C@H]3[C@@H](O)C[C@H](O[C@H]4CC[C@@]5(C)[C@H](CC[C@@H]6[C@@H]5C[C@@H](O)[C@]5(C)[C@@H](C7=CC(=O)OC7)CC[C@]65O)C4)O[C@@H]3C)O[C@@H]2C)C[C@H](O)[C@@H]1O` [Digoxin, digoxin], in data set [1] (setting [9]), the “Mean AUC∞ ratio of victim drug” value is given as 1.32 and the “Mean Cmax ratio of victim drug” value is 1.73. In addition, in data set [1] (setting [10]), the “Mean AUC∞ ratio of victim drug” value is reported as 1.26 and the “Mean Cmax ratio of victim drug” value is recorded as 1.71. Also, in data set [1] (elagolix 200 mg BID, observed), the “Increase in digoxin AUC” value is recorded as about 30% and the “Increase in digoxin Cmax” value is on record as “approximately 70%”.

As for `Cc1ncc2n1-c1ccc(Cl)cc1C(c1ccccc1F)=NC2` [Midazolam, midazolam], in data set [2] (elagolix 150 mg QD, observed), the “Decrease in midazolam AUC” value is on record as 35%. In addition, in data set [2] (setting [11]), the “Mean AUC∞ ratio of victim drug” value is 0.65 and the “Mean Cmax ratio of victim drug” value is 0.81.

As to `CO[C@H]1/C=C/O[C@@]2(C)Oc3c(C)c(O)c4c(O)c(c(/C=N/N5CCN(C)CC5)c(O)c4c3C2=O)NC(=O)/C(C)=C\C=C\[C@H](C)[C@H](O)[C@@H](C)[C@@H](O)[C@@H](C)[C@H](OC(C)=O)[C@@H]1C` [Rifampin, rifampin], the “Induction of P-gp expression” value in data set [3] was “four folds”.

On to `COc1cccc(-c2c(C)n(Cc3c(F)cccc3C(F)(F)F)c(=O)n(C[C@H](NCCCC(=O)O)c3ccccc3)c2=O)c1F` [elagolix], for which the “Mean Cmax ratio of elagolix” value in data set [4] is on record as 1.77. Also, in data set [5], the “Impact of hepatic impairment on elagolix exposures” value is on record as “no impact”. In addition, the “Apparent terminal elimination half-life (t½)” value in data set [6] (clinical doses of 150 mg QD and 200 mg BID) is 4 to 6 h. Further, the “Time of maximum plasma concentration (Cmax) after dosing” value in data set [6] (oral administration) is given as 1 h. Further, the AUCτ in data set [7] (150 mg QD (N = 6), Day 1, Observed) is 1331 ng●h/mL; in data set [7] (setting [12]), 1292 ng●h/mL; in data set [7] (200 mg BID (N = 7), Day 1, Observed), 1813 ng●h/mL; in data set [7] (setting [13]) it was 1725 ng●h/mL. Further, the apparent clearance CL/F in data set [7] (setting [12]) came out at 123 L/h; in data set [7] (setting [13]), 144 L/h. Also, the Tmax in data set [7] (human, plasma, oral, 150 mg) came to 1.3 h. Besides, the half-life is 6.42 h in data set [7] (human, plasma, oral, 150 mg) and 4.29 h in data set [7] (human, plasma, oral, 200 mg). For the same compound, the maximum concentration (Cmax) in data set [7] (human, plasma, oral, 150 mg, 150 mg QD (N = 6), Day 1, Observed) came to 507 ng/mL; in data set [7] (human, plasma, oral, 200 mg, 200 mg BID (N = 7), Day 1, Observed), 712 ng/mL. Moreover, the “Ki for P-gp below predicted intestinal elagolix concentration in the gastrointestinal lumen” value in data set [8] is given as “approximately 500 fold”.
